Results reported in PubChem BioAssay AID330 (DTP/NCI, 2004).
Values joined by “and” are separate entries in the source; they are usually repeats but may differ in a detail not shown here. Equal entries are not always repeated. Toxic doses and inconclusive results are not listed.

Test system: P388 leukemia ip, CD2F1 mice, survival T/C
Assay: NCI In Vivo Anticancer Drug Screen. Data for tumor model P388 Leukemia (intraperitoneal) in CD2F1 (CDF1) mice
Conditions: endpoint: median survival time, higher = longer survival
Method in brief: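 Mice carrying the transplanted tumor received test compound or vehicle. Survival was recorded in each group, and the value is the treated-group measurement divided by that of the vehicle-treated control group.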

[1] = dose: 100.0 mg/kg/injection, schedule: Q04DX003 (ip), vehicle: Klucel (hydroxypropylcellulose) (HPC)
[2] = dose: 200.0 mg/kg/injection, schedule: Q04DX003 (ip), vehicle: Klucel (hydroxypropylcellulose) (HPC)
[3] = dose: 400.0 mg/kg/injection, schedule: Q04DX003 (ip), vehicle: Klucel (hydroxypropylcellulose) (HPC)
[4] = dose: 50.0 mg/kg/injection, schedule: Q01DX009 (ip), vehicle: saline with Tween-80
[5] = dose: 100.0 mg/kg/injection, schedule: Q01DX009 (ip), vehicle: saline with Tween-80
[6] = dose: 200.0 mg/kg/injection, schedule: Q01DX009 (ip), vehicle: saline with Tween-80
[7] = dose: 30.0 mg/kg/injection, schedule: Q01DX005 (ip), vehicle: Klucel (hydroxypropylcellulose) (HPC)
[8] = dose: 60.0 mg/kg/injection, schedule: Q01DX005 (ip), vehicle: Klucel (hydroxypropylcellulose) (HPC)
[9] = dose: 120.0 mg/kg/injection, schedule: Q01DX005 (ip), vehicle: Klucel (hydroxypropylcellulose) (HPC)
[10] = dose: 240.0 mg/kg/injection, schedule: Q01DX005 (ip), vehicle: Klucel (hydroxypropylcellulose) (HPC)
[11] = dose: 30.0 mg/kg/injection, schedule: Q01DX005 (ip), vehicle: saline with Tween-80
[12] = dose: 100.0 mg/kg/injection, schedule: Q01DX009 (ip), vehicle: saline
[13] = dose: 200.0 mg/kg/injection, schedule: Q01DX009 (ip), vehicle: saline
[14] = dose: 400.0 mg/kg/injection, schedule: Q01DX009 (ip), vehicle: saline with Tween-80
[15] = dose: 6.25 mg/kg/injection, schedule: Q01DX005 (ip), vehicle: saline with Tween-80
[16] = dose: 12.5 mg/kg/injection, schedule: Q01DX005 (ip), vehicle: saline with Tween-80
[17] = dose: 25.0 mg/kg/injection, schedule: Q01DX005 (ip), vehicle: saline with Tween-80
[18] = dose: 12.5 mg/kg/injection, schedule: Q01DX009 (ip), vehicle: Klucel (hydroxypropylcellulose) (HPC)
[19] = dose: 25.0 mg/kg/injection, schedule: Q01DX009 (ip), vehicle: Klucel (hydroxypropylcellulose) (HPC)

For `COC1OC2COC(c3ccccc3)OC2C(O)[CH]1[Hg][O]C(C)=O` (stereo unspecified), the T/C (dose: 0.1 mg/kg/injection, schedule: Q01DX009 (ip), vehicle: distilled water + Tween-80) was 100 % of control, the T/C (dose: 0.19 mg/kg/injection, schedule: Q01DX009 (ip), vehicle: distilled water + Tween-80) was 96 % of control and the T/C (dose: 0.38 mg/kg/injection, schedule: Q01DX009 (ip), vehicle: distilled water + Tween-80) was 107 % of control. The T/C (dose: 0.78 mg/kg/injection, schedule: Q01DX009 (ip), vehicle: distilled water + Tween-80) was 99 % of control, the T/C (dose: 1.56 mg/kg/injection, schedule: Q01DX009 (ip), vehicle: distilled water + Tween-80) was 91 % of control and the T/C (dose: 3.13 mg/kg/injection, schedule: Q01DX009 (ip), vehicle: distilled water + Tween-80) was 104 % of control. For the same compound, the T/C (dose: 6.25 mg/kg/injection, schedule: Q01DX009 (ip), vehicle: distilled water + Tween-80) was 96 % of control and the T/C (dose: 12.5 mg/kg/injection, schedule: Q01DX009 (ip), vehicle: distilled water + Tween-80) was 110 % of control.

With `CCOc1c(OC)cc(-c2n[nH]c(=S)o2)cc1OC` the T/C [1] was 101 % of control, the T/C [2] was 95 % of control and the T/C [3] was 100 % of control.

`C=CCNc1nnc(-c2ccccc2)s1` was tested, and the T/C [4] was 103 % of control, the T/C [5] was 100 % of control and the T/C [6] was 100 % of control.

`NC(=S)N/N=C/c1nccc2ccccc12` was tested, and the T/C (dose: 9.4 mg/kg/injection, schedule: Q01DX009 (ip), vehicle: saline with Tween-80) was 153 % of control, the T/C (dose: 37.5 mg/kg/injection, schedule: Q01DX009 (ip), vehicle: saline) was 150 % of control and the T/C (dose: 75.0 mg/kg/injection, schedule: Q01DX009 (ip), vehicle: saline) was 150 % of control. The T/C [5] was 152 % of control and the T/C [6] was 98 % of control.

For `O=C1CSC(C2CCCCC2)N1c1nncs1` (stereo unspecified), the T/C [7] was 100 % of control, the T/C [8] was 100 % of control and the T/C [9] was 101 % of control. The T/C [10] was 107 % of control.

For `COC(=O)C1(N2CCOCC2)CCC([C@@H](c2ccccc2)C(C)[N+](=O)[O-])C1` (stereo partly specified), the T/C [8] was 100 % of control, the T/C [9] was 98 % of control and the T/C [10] was 99 % of control.

`O=[N+]([O-])/N=c1/nc2scc(-c3ccc([N+](=O)[O-])cc3)n2s1` was tested, and the T/C (dose: 1.87 mg/kg/injection, schedule: Q01DX005 (ip), vehicle: saline with Tween-80) was 99 % of control, the T/C (dose: 3.75 mg/kg/injection, schedule: Q01DX005 (ip), vehicle: saline with Tween-80) was 107 % of control and the T/C (dose: 7.5 mg/kg/injection, schedule: Q01DX005 (ip), vehicle: saline with Tween-80) was 99 % of control and 97 % of control. The T/C [11] was 91 % of control, the T/C (dose: 60.0 mg/kg/injection, schedule: Q01DX005 (ip), vehicle: saline with Tween-80) was 106 % of control and the T/C (dose: 240.0 mg/kg/injection, schedule: Q01DX005 (ip), vehicle: saline with Tween-80) was 87 % of control.

For `COc1ccc(C2c3cc(OC)c(OC)cc3CC3C(=O)OCC32)cc1OC` (stereo unspecified), the T/C (dose: 50.0 mg/kg/injection, schedule: Q01DX005 (ip), vehicle: Klucel (hydroxypropylcellulose) (HPC)) was 94 % of control and 107 % of control, the T/C (dose: 100.0 mg/kg/injection, schedule: Q01DX005 (ip), vehicle: Klucel (hydroxypropylcellulose) (HPC)) was 100 % of control and 97 % of control and the T/C (dose: 200.0 mg/kg/injection, schedule: Q01DX005 (ip), vehicle: Klucel (hydroxypropylcellulose) (HPC)) was 112 % of control and 103 % of control.

In the case of `CN(C)CCN1c2ccccc2Oc2ccccc21`, the T/C (dose: 50.0 mg/kg/injection, schedule: Q01DX005 (ip), vehicle: saline) is reported as 104 % of control and the T/C (dose: 100.0 mg/kg/injection, schedule: Q01DX005 (ip), vehicle: saline) is reported as 95 % of control.

For `O=c1oc2ccccc2c(O)c1C(c1ccc2c(c1)OCO2)c1c(O)c2ccccc2oc1=O`, the T/C (dose: 15.0 mg/kg/injection, schedule: Q01DX005 (ip), vehicle: saline with Tween-80) was 98 % of control and the T/C [11] was 96 % of control.

In the case of `O=C(O)Cn1cc(I)c(=O)c(I)c1`, the T/C [4] is reported as 102 % of control, the T/C [5] is reported as 112 % of control and the T/C [12] is reported as 101 % of control. For the same compound, the T/C [6] was 110 % of control, the T/C [13] was 105 % of control and the T/C [14] was 112 % of control. For the same compound, the T/C (dose: 400.0 mg/kg/injection, schedule: Q01DX009 (ip), vehicle: saline) was 102 % of control and the T/C (dose: 600.0 mg/kg/injection, schedule: Q01DX009 (ip), vehicle: saline) was 101 % of control.

In the case of `[O]=[Nb]`, the T/C (dose: 2.5 mg/kg/injection, schedule: Q01DX009 (ip), vehicle: saline with Tween-80) is reported as 100 % of control and the T/C (dose: 5.0 mg/kg/injection, schedule: Q01DX009 (ip), vehicle: saline with Tween-80) is reported as 100 % of control.

`COC(=O)CCC(C)(c1ccc(O)cc1)c1ccc(O)cc1` was tested, and the T/C (dose: 100.0 mg/kg/injection, schedule: Q04DX003 (ip), vehicle: saline with Tween-80) was 104 % of control, the T/C (dose: 200.0 mg/kg/injection, schedule: Q04DX003 (ip), vehicle: saline with Tween-80) was 90 % of control and the T/C (dose: 400.0 mg/kg/injection, schedule: Q04DX003 (ip), vehicle: saline with Tween-80) was 90 % of control.

In the case of `Cc1cc(Cl)c2ccc(N(C)C)cc2n1`, the T/C [4] is reported as 119 % of control, the T/C [5] is reported as 112 % of control and the T/C [6] is reported as 110 % of control.

`COc1ccc(-n2c(SC)nccc2=O)cc1` was tested, and the T/C [1] was 100 % of control and the T/C [2] was 99 % of control.

In the case of `CCN(C(=S)NNC(=S)N/N=C(\C)c1ccccn1)c1ccccc1`, the T/C [15] is reported as 94 % of control, the T/C [16] is reported as 107 % of control and the T/C [17] is reported as 109 % of control. For the same compound, the T/C (dose: 50.0 mg/kg/injection, schedule: Q01DX005 (ip), vehicle: saline with Tween-80) was 112 % of control and the T/C (dose: 100.0 mg/kg/injection, schedule: Q01DX005 (ip), vehicle: saline with Tween-80) was 120 % of control.

For `S=C(Nc1ccc2c(c1)OCO2)SCc1ccc(Cl)c(Cl)c1`, the T/C [18] was 91 % of control, the T/C [19] was 105 % of control and the T/C (dose: 50.0 mg/kg/injection, schedule: Q01DX009 (ip), vehicle: Klucel (hydroxypropylcellulose) (HPC)) was 107 % of control. The T/C (dose: 50.0 mg/kg/injection, schedule: Q01DX009 (ip), vehicle: saline) was 106 % of control, the T/C (dose: 50.0 mg/kg/injection, schedule: Q01DX009 (ip), vehicle: suspension in saline) was 103 % of control and the T/C [12] was 108 % of control. The T/C (dose: 100.0 mg/kg/injection, schedule: Q01DX009 (ip), vehicle: suspension in saline) was 93 % of control, the T/C [13] was 118 % of control and the T/C (dose: 200.0 mg/kg/injection, schedule: Q01DX009 (ip), vehicle: suspension in saline) was 98 % of control.

In the case of `Cc1ccc(N2CC(=O)N3CCCN3C(=O)C2)cc1`, the T/C [15] is reported as 98 % of control, the T/C [16] is reported as 100 % of control and the T/C [17] is reported as 102 % of control.

`Cn1cnc2cc(N3CCOCC3)c([N+](=O)[O-])cc2c1=O` was tested, and the T/C [1] was 105 % of control, the T/C [2] was 112 % of control and the T/C [3] was 95 % of control.

With `N[C@H](Cc1c[nH]c2ccccc12)C(=O)O` the T/C [5] was 98 % of control, the T/C [6] was 103 % of control and the T/C [14] was 103 % of control.

For `O=C(NCCO)Nc1ccccc1F`, the T/C (dose: 100.0 mg/kg/injection, schedule: Q04DX003 (ip), vehicle: saline) was 100 % of control, the T/C (dose: 200.0 mg/kg/injection, schedule: Q04DX003 (ip), vehicle: saline) was 95 % of control and the T/C (dose: 400.0 mg/kg/injection, schedule: Q04DX003 (ip), vehicle: saline) was 104 % of control.

With `COc1cc2cc[n+](C)c(Cc3ccc(Oc4cc(Cc5c6cc(OC)c(OC)cc6cc[n+]5C)ccc4OC)cc3)c2cc1OC` the T/C (dose: 2.5 mg/kg/injection, schedule: Q01DX009 (ip), vehicle: saline) was 98 % of control, the T/C (dose: 5.0 mg/kg/injection, schedule: Q01DX009 (ip), vehicle: saline) was 99 % of control and the T/C (dose: 10.0 mg/kg/injection, schedule: Q01DX009 (ip), vehicle: saline) was 88 % of control.

`CC(=O)Nc1ccc(C(=O)CCl)c(Cl)c1` was tested, and the T/C [18] was 104 % of control and the T/C [19] was 107 % of control.

With `Clc1cc2c(c(CSC3=NCN(CC4CC4)CN3)c1)OCOC2` the T/C (dose: 15.0 mg/kg/injection, schedule: Q01DX005 (ip), vehicle: Klucel (hydroxypropylcellulose) (HPC)) was 99 % of control, the T/C [7] was 100 % of control and the T/C [8] was 98 % of control and 101 % of control.
